Test results taken from ChEMBL document CHEMBL4373723 (J Med Chem, 2019).
Bridge positions count the residues as written; N and C are the ends. Square brackets hold non-standard residues; d marks the D form. Peptide text beside a SMILES is read from it. I, II: the chains in the order shown. Phe(4-CF3) = N[C@@H](Cc1ccc(C(F)(F)F)cc1)C(=O)O; Phe(3-Cl) = N[C@@H](Cc1cccc(Cl)c1)C(=O)O; Phe(4-Me) = Cc1ccc(C[C@H](N)C(=O)O)cc1

How the values were obtained:
[1] = target: T1, Frizzled-7 (Homo sapiens, UniProt O75084); settings: CHO
Description: Binding affinity to recombinant human Frizzled-7 (Gln33 to Leu185 residues)/human IgG1 chimeric protein expressed in CHO cells assessed as association rate constant by SPR assay

[2] = target: T1, Frizzled-7; test: biochemical; type: cell-based, CHO; settings: read-out: Kd
[3] = target: T1, Frizzled-7; type: cell-based; settings: cho
[4] = target: T1, Frizzled-7; test: Inhibition of Frizzled-7 in HEK293 cells expressing Wnt assessed as reduction in Wnt signaling by firefly luciferase reporter gene assay; type: cell-based

Row | SMILES | Ka [1] | Kd [2] | Kd [3] | IC50 [4]
1 | CSCC[C@H](NC(=O)[C@@H](NC(=O)[C@H](Cc1cnc[nH]1)NC(=O)[C@H](CSSC[C@H](NC(=O)[C@H](Cc1c[nH]c2ccccc12)NC(=O)[C@H](Cc1ccccc1)NC(=O)[C@H](CCC(=O)O)NC(=O)[C@H](CC(C)C)NC(=O)[C@H](CC(=O)O)NC(=O)[C@H](CC(=O)O)NC(=O)[C@H](CO)NC(C)=O)C(=O)N[C@@H](Cc1cnc[nH]1)C(=O)N[C@H](C(=O)N[C@@H](CCSC)C(=O)N[C@@H](Cc1ccc(C)cc1)C(N)=O)C(C)C)NC(=O)[C@H](Cc1c[nH]c2ccccc12)NC(=O)[C@H](Cc1ccccc1)NC(=O)[C@H](CCC(=O)O)NC(=O)[C@H](CC(C)C)NC(=O)[C@H](CC(=O)O)NC(=O)[C@H](CC(=O)O)NC(=O)[C@H](CO)NC(C)=O)C(C)C)C(=O)N[C@@H](Cc1ccc(C)cc1)C(N)=O (I: Ac-SDDLEFWCHVM[Phe(4-Me)]-NH2 / II: Ac-SDDLEFWCHVM[Phe(4-Me)]-NH2; disulfide I:8-II:8) | 10.2 ×10⁵ /M/s | 0.97 nM | 0.98 ×10⁻³ /s | –
2 | CC[C@H](C)[C@H](NC(=O)[C@H](Cc1cnc[nH]1)NC(=O)[C@H](CSSC[C@H](NC(=O)[C@H](Cc1c[nH]c2ccccc12)NC(=O)[C@H](CC(C)C)NC(=O)[C@H](CCC(=O)O)NC(=O)[C@H](CC(C)C)NC(=O)[C@H](CC(=O)O)NC(=O)[C@H](CC(=O)O)NC(=O)[C@H](CO)NC(C)=O)C(=O)N[C@@H](Cc1cnc[nH]1)C(=O)N[C@H](C(=O)N[C@@H](CCSC)C(=O)N[C@@H](Cc1ccc(O)cc1)C(N)=O)[C@@H](C)CC)NC(=O)[C@H](Cc1c[nH]c2ccccc12)NC(=O)[C@H](CC(C)C)NC(=O)[C@H](CCC(=O)O)NC(=O)[C@H](CC(C)C)NC(=O)[C@H](CC(=O)O)NC(=O)[C@H](CC(=O)O)NC(=O)[C@H](CO)NC(C)=O)C(=O)N[C@@H](CCSC)C(=O)N[C@@H](Cc1ccc(O)cc1)C(N)=O (I: Ac-SDDLELWCHIMY-NH2 / II: Ac-SDDLELWCHIMY-NH2; disulfide I:8-II:8) | 128 ×10⁵ /M/s | 0.044 nM | 0.57 ×10⁻³ /s | 7.3 nM
3 | CC[C@H](C)[C@H](NC(=O)[C@H](Cc1cnc[nH]1)NC(=O)[C@H](CSSC[C@H](NC(=O)[C@H](Cc1c[nH]c2ccccc12)NC(=O)[C@H](CC(C)C)NC(=O)[C@H](CCCCN)NC(=O)[C@H](CC(C)C)NC(=O)[C@H](CC(=O)O)NC(=O)[C@H](CC(=O)O)NC(=O)[C@@H](NC(C)=O)[C@H](C)O)C(=O)N[C@@H](Cc1cnc[nH]1)C(=O)N[C@H](C(=O)N[C@@H](CCSC)C(=O)N[C@@H](Cc1ccc(O)cc1)C(N)=O)[C@@H](C)CC)NC(=O)[C@H](Cc1c[nH]c2ccccc12)NC(=O)[C@H](CC(C)C)NC(=O)[C@H](CCCCN)NC(=O)[C@H](CC(C)C)NC(=O)[C@H](CC(=O)O)NC(=O)[C@H](CC(=O)O)NC(=O)[C@@H](NC(C)=O)[C@H](C)O)C(=O)N[C@@H](CCSC)C(=O)N[C@@H](Cc1ccc(O)cc1)C(N)=O | 103 ×10⁵ /M/s | 0.045 nM | 0.46 ×10⁻³ /s | 4.8 nM
4 | CC[C@H](C)[C@H](NC(=O)[C@H](Cc1cnc[nH]1)NC(=O)[C@H](CSSC[C@H](NC(=O)[C@H](Cc1c[nH]c2ccccc12)NC(=O)[C@H](Cc1ccccc1)NC(=O)[C@H](CCC(=O)O)NC(=O)[C@H](CC(C)C)NC(=O)[C@H](CC(=O)O)NC(=O)[C@H](CC(=O)O)NC(=O)[C@H](CO)NC(C)=O)C(=O)N[C@@H](Cc1cnc[nH]1)C(=O)N[C@H](C(=O)N[C@@H](CCSC)C(=O)N[C@@H](Cc1ccc(O)cc1)C(N)=O)[C@@H](C)CC)NC(=O)[C@H](Cc1c[nH]c2ccccc12)NC(=O)[C@H](Cc1ccccc1)NC(=O)[C@H](CCC(=O)O)NC(=O)[C@H](CC(C)C)NC(=O)[C@H](CC(=O)O)NC(=O)[C@H](CC(=O)O)NC(=O)[C@H](CO)NC(C)=O)C(=O)N[C@@H](CCSC)C(=O)N[C@@H](Cc1ccc(O)cc1)C(N)=O (I: Ac-SDDLEFWCHIMY-NH2 / II: Ac-SDDLEFWCHIMY-NH2; disulfide I:8-II:8) | 55.1 ×10⁵ /M/s | 0.18 nM | 0.96 ×10⁻³ /s | –
5 | CSCC[C@H](NC(=O)[C@@H](NC(=O)[C@H](Cc1cnc[nH]1)NC(=O)[C@H](CSSC[C@H](NC(=O)[C@H](Cc1c[nH]c2ccccc12)NC(=O)[C@H](Cc1cccc(Cl)c1)NC(=O)[C@H](CCC(=O)O)NC(=O)[C@H](CC(C)C)NC(=O)[C@H](CC(=O)O)NC(=O)[C@H](CC(=O)O)NC(=O)[C@H](CO)NC(C)=O)C(=O)N[C@@H](Cc1cnc[nH]1)C(=O)N[C@H](C(=O)N[C@@H](CCSC)C(=O)N[C@@H](Cc1ccc(O)cc1)C(N)=O)C(C)C)NC(=O)[C@H](Cc1c[nH]c2ccccc12)NC(=O)[C@H](Cc1cccc(Cl)c1)NC(=O)[C@H](CCC(=O)O)NC(=O)[C@H](CC(C)C)NC(=O)[C@H](CC(=O)O)NC(=O)[C@H](CC(=O)O)NC(=O)[C@H](CO)NC(C)=O)C(C)C)C(=O)N[C@@H](Cc1ccc(O)cc1)C(N)=O (I: Ac-SDDLE[Phe(3-Cl)]WCHVMY-NH2 / II: Ac-SDDLE[Phe(3-Cl)]WCHVMY-NH2; disulfide I:8-II:8) | 66.3 ×10⁵ /M/s | 0.1 nM | 0.63 ×10⁻³ /s | –
6 | CSCC[C@H](NC(=O)[C@@H](NC(=O)[C@H](Cc1cnc[nH]1)NC(=O)[C@H](CSSC[C@H](NC(=O)[C@H](Cc1c[nH]c2ccccc12)NC(=O)[C@H](Cc1ccccc1)NC(=O)[C@H](CCC(=O)O)NC(=O)[C@H](CC(C)C)NC(=O)[C@H](CC(=O)O)NC(=O)[C@H](CC(=O)O)NC(=O)[C@H](CO)NC(C)=O)C(=O)N[C@@H](Cc1cnc[nH]1)C(=O)N[C@H](C(=O)N[C@@H](CCSC)C(=O)N[C@@H](Cc1ccc(C(F)(F)F)cc1)C(N)=O)C(C)C)NC(=O)[C@H](Cc1c[nH]c2ccccc12)NC(=O)[C@H](Cc1ccccc1)NC(=O)[C@H](CCC(=O)O)NC(=O)[C@H](CC(C)C)NC(=O)[C@H](CC(=O)O)NC(=O)[C@H](CC(=O)O)NC(=O)[C@H](CO)NC(C)=O)C(C)C)C(=O)N[C@@H](Cc1ccc(C(F)(F)F)cc1)C(N)=O (I: Ac-SDDLEFWCHVM[Phe(4-CF3)]-NH2 / II: Ac-SDDLEFWCHVM[Phe(4-CF3)]-NH2; disulfide I:8-II:8) | 1.45 ×10⁵ /M/s | 13.1 nM | 1.9 ×10⁻³ /s | –
